Values after ≈ are worked out from the molar mass of the structure shown.
Columns and labels:
Escherichia coli EC14 = experiment: Oral therapy of experimental infections in mice; assay type: in vivo; conditions: oral (gavage) at 1 and 5 hours post infection, read-out: Effective Dose (ED50)
Protocol: (§1) In Table II, the respective effective doses (ED50) for these antibiotics is presented. The data were obtained in mice infected with the indicated microorganism following oral administration of the antibiotics at 1 and 5 hours post infection.
(§2) ^1 mg./kg. × 2 oral doses (gavage) at 1 and 5 hours post

[1] = tested on: Streptococcus pyogenes C203; experiment: Oral therapy of experimental infections in mice; assay type: in vivo; conditions: for ED50: Streptococcus pyogenes C203, mice, oral (gavage) at 1 and 5 hours post infection, read-out: Effective Dose (ED50)
Protocol: as §1, §2

[2] = Duration of antibiotic blood levels in mice after single oral dose (agar disc-plate assay, Sarcina lutea); assay type: in vivo; conditions: mouse, single oral dose 20 mg./kg.; for concentration at 10 min: 10 min post administration; for concentration at 20 min: 20 min post administration; for concentration at 0.5 h: 30 min post administration; for concentration at 1 h: 60 min post administration; for concentration at 1.5 h: 90 min post administration; for Cmax: read-out: peak blood level; for concentration at 2 h: 120 min post administration
Protocol: The determinations were carried out in groups of 3 or 4 mice as indicated in the table and the results averaged. At the indicated time intervals post administration, blood samples were withdrawn at the orbital sinus from each mouse in the test group and assayed for the concentration of antibiotic. […]

[3] = tested on: Diplococcus pneumoniae Park I; experiment: Oral therapy of experimental infections in mice; assay type: in vivo; conditions: Streptococcus pneumoniae, oral (gavage) at 1 and 5 hours post infection, read-out: Effective Dose (ED50)
Protocol: as §1, §2

Proteus mirabilis PR6 = experiment: Oral therapy of experimental infections in mice; assay type: in vivo; conditions: oral (gavage) at 1 and 5 hours post infection, read-out: Effective Dose (ED50)
Protocol: as §1, §2

physchem = conditions: 6% dmf
Aerobacter aerogenes = experiment: Antibacterial activity, MIC by Gradient-plate technique; assay type: cell-based; conditions: for MIC: Klebsiella aerogenes, read-out: Minimum Inhibitory Concentration
From the text: (§3) The cephalosporin compounds of this invention (Formula I, R1 =H) are orally effective broad spectrum antibiotics which are useful in controlling infections caused by gram-positive and gram-negative bacteria. […] In Table I, below, the antibacterial activity of the compounds of formula I wherein R1 is hydrogen is illustrated. The bacteria are gram-negative bacteria and the activity is presented as minimum inhibitory concentrations in micrograms per milliliter (mcg./ml.). The activity was obtained by the Gradient-plate technique.

Pseudomonas aeruginosa = experiment: as above; assay type: cell-based; conditions: for MIC: read-out: Minimum Inhibitory Concentration
From the text: as §3

Serratia marcescens = experiment: as above; assay type: cell-based; conditions: for MIC: read-out: Minimum Inhibitory Concentration
From the text: as §3

Klebsiella pneumoniae = experiment: as above; assay type: cell-based; conditions: for MIC: read-out: Minimum Inhibitory Concentration
From the text: as §3

Shigella sp. = experiment: as above; assay type: cell-based; conditions: for MIC: read-out: Minimum Inhibitory Concentration
From the text: as §3

Escherichia coli = experiment: as above; assay type: cell-based; conditions: for MIC: read-out: Minimum Inhibitory Concentration
From the text: as §3

Salmonella heidelberg = experiment: as above; assay type: cell-based; conditions: for MIC: Salmonella enterica, read-out: Minimum Inhibitory Concentration
From the text: as §3

Compound	ED50 (Escherichia coli EC14) [mg/kg]	ED50 [1] [mg/kg]	concentration at 10 min [2] [ng/mL]	concentration at 20 min [2] [ng/mL]	concentration at 0.5 h [2] [ng/mL]	concentration at 1 h [2] [ng/mL]	concentration at 1.5 h [2] [ng/mL]	Cmax [2] [ng/mL]	ED50 [3] [mg/kg]	ED50 (Proteus mirabilis PR6) [mg/kg]	concentration at 2 h [2] [ng/mL]	MIC (Aerobacter aerogenes) [µg/mL]	MIC (Pseudomonas aeruginosa) [µg/mL]	MIC (Serratia marcescens) [µg/mL]	MIC (Klebsiella pneumoniae) [µg/mL]	MIC (Shigella sp.) [µg/mL]	MIC (Escherichia coli) [µg/mL]	MIC (Salmonella heidelberg) [µg/mL]	also measured
Cn1nnnc1SCC1=C(C(=O)O)N2C(=O)C(NC(=O)C(N)c3ccccc3)C2SC1 (stereo not drawn) [compound 2, reference compound]	8.4	4.05	260	750	1170	890	1090	~1200											
Cc1nnc(SCC2=C(C(=O)O)N3C(=O)C(NC(=O)C(N)c4ccccc4)C3SC2)s1 (stereo not drawn) [compound 4, reference compound]	6.9	1.15	1980	3380	3990	2340	1610	~4000	5.2	20.7									
Cc1nnc(SCC2=C(C(=O)O)N3C(=O)[C@@H](NC(=O)[C@H](N)c4ccc(O)cc4)[C@H]3SC2)s1 [compound 3, 7β-(D-4-hydroxyphenylglycylamido)-3-(5-methyl-1,3,4-thiadiazol-2-ylthiomethyl)-3-cephem-4-carboxylic acid]	2.1	0.08	10600	13200	13900	14300	9800	~14300	< 1.1	< 4.5	5200	1 (≈ 2.03 µM)	> 200	47.5 (≈ 96.2 µM)	1 (≈ 2.03 µM)	2 (≈ 4.05 µM)	2.5 (≈ 5.06 µM)	1 (≈ 2.03 µM)	pKa (physchem; pKa (first)): 4.4; pKa (physchem; pKa (second)): 7.6; pKa (physchem; pKa (third)): 12.2; ED50 times lower than that exhibited by compound No. 4 ([1]; S. pyogenes infections in mice, 1.15/0.08): approximately 14 times; ED50 times lower than that exhibited by compound No. 2 ([1]; S. pyogenes infections in mice, 4.05/0.08): approximately 50 times
Cn1nnnc1SCC1=C(C(=O)O)N2C(=O)[C@@H](NC(=O)[C@H](N)c3ccc(O)cc3)[C@H]2SC1 [compound 1, 7β-(4-hydroxyphenylglycylamido)-3-(1-methyl-1H-tetrazole-5-ylthiomethyl)-3-cephem-4-carboxylic acid]	3.7	0.18	2560	5780	8550	8880	6940	~8900	< 1.1	< 4.5	5360	0.7 (≈ 1.47 µM)	> 200	12.5 (≈ 26.2 µM)	1 (≈ 2.09 µM)	0.8 (≈ 1.68 µM)	1 (≈ 2.09 µM)	0.6 (≈ 1.26 µM)	
7β-(D-4-hydroxyphenylglycylamido)-3-(1-methyl-1H-tetrazole-5-ylthiomethyl)-3-cephem-4-carboxylic acid																			Minimum Inhibitory Concentration (Aerobacter aerogenes): 0.9 µg/mL; Minimum Inhibitory Concentration (Pseudomonas aeruginosa): 120 µg/mL; Minimum Inhibitory Concentration (Serratia marcescens): 5.0 µg/mL; Minimum Inhibitory Concentration (Klebsiella pneumoniae): 0.6 µg/mL; Minimum Inhibitory Concentration (Shigella sp.): 0.8 µg/mL; Minimum Inhibitory Concentration (Escherichia coli): 0.9 µg/mL; Minimum Inhibitory Concentration (Salmonella heidelberg): 0.8 µg/mL
